This assay has as its target T1, AsPC-1 HiBiT-KRASG12D (Homo sapiens, UniProt P01116, G12D).
T1 construct: insert the HiBiT tag onto the N-terminus of one or more of the endogenous KRAS alleles; endogenous in cells; host or cells: AsPC-1 (ATCC CRL-1682), CRISPR-Cas9 knock-in clone, one tagged allele
Briefly: HiBiT degradation assay (G12D), AsPC-1 HiBiT-KRASG12D cells. The assay is classed as cell-based. The conditions noted are these: 24 hours treatment; for Dmax: ASPC1, AsPC-1 HiBiT-KRASG12D cells, maximum degradation observed; for DC50: AsPC-1 HiBiT-KRASG12D cells, HiBiT luminescence. Summed up:
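24 h cmpd treatment, 37° C/5% CO2, AsPC-1 HiBiT-KRASG12D clone (CRISPR N-term tag). Alamar blue 1×, 4 h, fluorescence. PBS wash, Nano-Glo HiBiT lytic reagent, 45 min RT, luminescence. Triplicates.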

Bounds are passed on as bounds.

T1 sequence (P01116 1-188 isoform P01116-2 G12D): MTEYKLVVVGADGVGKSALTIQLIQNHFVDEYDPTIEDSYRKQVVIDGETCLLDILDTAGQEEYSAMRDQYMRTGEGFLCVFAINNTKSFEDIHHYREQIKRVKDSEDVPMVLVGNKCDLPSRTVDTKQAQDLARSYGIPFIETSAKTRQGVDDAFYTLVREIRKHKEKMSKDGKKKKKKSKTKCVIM

As a reminder, the Dmax is the largest share of the target that was removed. Low values mean a partial loss of target, high ones a fuller loss of target. By DC50 is commonly meant the concentration giving 50% degradation. Low values mean degradation at low concentration, high ones degradation only at high concentration. Turning to `CCc1cccc2cc(O)cc(-c3ncc4c(N5CC6CCC(C5)N6)nc(OCCN5CCC(F)(CN6CCN(c7cc([C@H](C(=O)N8C[C@H](O)C[C@H]8C(=O)N[C@@H](C)c8ccc(-c9scnc9C)cc8)C(C)C)on7)[C@@H](C)C6)CC5)nc4c3F)c12` [Compound 209, (2S,4R)-1-[(2R)-2-{3-[(2S)-4-[(1-{2-[(4-{3,8-diazabicyclo[3.2.1]octan-3-yl}-7-(8-ethyl-3-hydroxynaphthalen-1-yl)-8-fluoropyrido[4,3-d]pyrimidin-2-yl)oxy]ethyl}-4-fluoropiperidin-4-yl)methyl]-2-methylpiperazin-1-yl]-1,2-oxazol-5-yl}-3-methylbutanoyl]-4-hydroxy-N-[(1S)-1-[4-(4-methyl-1,3-thiazol-5-yl)phenyl]ethyl]pyrrolidine-2-carboxamide], the Dmax fell in the range of 80 to 100% and the DC50 was below 600 nM.
The compound `CCc1cccc2cc(O)cc(-c3ncc4c(N5CC6CCC(C5)N6)nc(OCCN5CCC(CC6CCN(c7cc([C@@H](C(=O)N8C[C@H](O)C[C@H]8C(=O)N[C@@H](C)c8ccc(-c9ccnn9C)cc8)C(C)C)on7)CC6)CC5)nc4c3F)c12` [Compound 210, (2S,4R)-1-[(2S)-2-(3-{4-[(1-{2-[(4-{3,8-diazabicyclo[3.2.1]octan-3-yl}-7-(8-ethyl-3-hydroxynaphthalen-1-yl)-8-fluoropyrido[4,3-d]pyrimidin-2-yl)oxy]ethyl}piperidin-4-yl)methyl]piperidin-1-yl}-1,2-oxazol-5-yl)-3-methylbutanoyl]-4-hydroxy-N-[(1S)-1-[4-(1-methyl-1H-pyrazol-5-yl)phenyl]ethyl]pyrrolidine-2-carboxamide] displayed a Dmax of 20 to 60% and a DC50 of 600 to 1000 nM.
Taken in the same sequence, the figures for `CCc1cccc2cc(O)cc(-c3ncc4c(N5CC6CCC(C5)N6)nc(OCCN5CCC(CN6CCN(c7cc([C@H](C(=O)N8C[C@H](O)C[C@H]8C(=O)N[C@@H](C)c8ccc(-c9scnc9C)cc8)C(C)C)on7)CC6)CC5)nc4c3F)c12` [Compound 211, (2S,4R)-1-[(2R)-2-(3-{4-[(1-{2-[(4-{3,8-diazabicyclo[3.2.1]octan-3-yl}-7-(8-ethyl-3-hydroxynaphthalen-1-yl)-8-fluoropyrido[4,3-d]pyrimidin-2-yl)oxy]ethyl}piperidin-4-yl)methyl]piperazin-1-yl}-1,2-oxazol-5-yl)-3-methylbutanoyl]-4-hydroxy-N-[(1S)-1-[4-(4-methyl-1,3-thiazol-5-yl)phenyl]ethyl] pyrrolidine-2-carboxamide] were 80 to 100% and below 600 nM.
The like results for `CCc1cccc2cc(O)cc(-c3ncc4c(N5CC6CCC(C5)N6)nc(OCCN5CCC(CC6CN(c7cc([C@H](C(=O)N8C[C@H](O)C[C@H]8C(=O)N[C@@H](C)c8ccc(-c9ccnn9C)cc8)C(C)C)on7)C6)CC5)nc4c3F)c12` [Compound 212, (2S,4R)-1-[(2R)-2-(3-{3-[(1-{2-[(4-{3,8-diazabicyclo[3.2.1]octan-3-yl}-7-(8-ethyl-3-hydroxynaphthalen-1-yl)-8-fluoropyrido[4,3-d]pyrimidin-2-yl)oxy]ethyl}piperidin-4-yl)methyl]azetidin-1-yl}-1,2-oxazol-5-yl)-3-methylbutanoyl]-4-hydroxy-N-[(1S)-1-[4-(1-methyl-1H-pyrazol-5-yl)phenyl]ethyl]pyrrolidine-2-carboxamide] were, in that order, 80 to 100% and below 600 nM.
Taken in the same sequence, the figures for `CCc1cccc2cc(O)cc(-c3ncc4c(N5CC6CCC(C5)N6)nc(OC[C@@H]5CC[C@@H](COC(=O)N6CC7(C6)CN(c6cc([C@H](C(=O)N8C[C@H](O)C[C@H]8C(=O)N[C@@H](C)c8ccc(-c9scnc9C)cc8)C(C)C)on6)C7)N5C)nc4c3F)c12` [Compound 213, [(2S,5S)-5-{[(4-{3,8-diazabicyclo[3.2.1]octan-3-yl}-7-(8-ethyl-3-hydroxynaphthalen-1-yl)-8-fluoropyrido[4,3-d]pyrimidin-2-yl)oxy]methyl}-1-methylpyrrolidin-2-yl]methyl 6-{5-[(2R)-1-[(2S,4R)-4-hydroxy-2-{[(1S)-1-[4-(4-methyl-1,3-thiazol-5-yl)phenyl]ethyl]carbamoyl}pyrrolidin-1-yl]-3-methyl-1-oxobutan-2-yl]-1,2-oxazol-3-yl}-2,6-diazaspiro[3.3]heptane-2-carboxylate] were 80 to 100% and below 600 nM.
`CCc1cccc2cc(O)cc(-c3ncc4c(N5CC6CCC(C5)N6)nc(OCCN5CCC(F)(CN6CCN(c7cc([C@H](C(=O)N8C[C@H](O)C[C@H]8C(=O)N[C@@H](C)c8ccc(-c9scnc9C)cc8)C(C)C)on7)C[C@@H]6C)CC5)nc4c3F)c12` [Compound 214, (2S,4R)-1-[(2R)-2-{3-[(3S)-4-[(1-{2-[(4-{3,8-diazabicyclo[3.2.1]octan-3-yl}-7-(8-ethyl-3-hydroxynaphthalen-1-yl)-8-fluoropyrido[4,3-d]pyrimidin-2-yl)oxy]ethyl}-4-fluoropiperidin-4-yl)methyl]-3-methylpiperazin-1-yl]-1,2-oxazol-5-yl}-3-methylbutanoyl]-4-hydroxy-N-[(1S)-1-[4-(4-methyl-1,3-thiazol-5-yl)phenyl]ethyl]pyrrolidine-2-carboxamide] came in with a Dmax of 80 to 100% and a DC50 below 600 nM.
`CCc1cccc2cc(O)cc(-c3ncc4c(N5CC6CCC(C5)N6)nc(OCCN5CCC(OC6CN(c7cc([C@H](C(=O)N8C[C@H](O)C[C@H]8C(=O)N[C@@H](C)c8ccc(-c9scnc9C)cc8)C(C)C)on7)C6)CC5)nc4c3F)c12` [Compound 215, (2S,4R)-1-[(2R)-2-(3-{3-[(1-{2-[(4-{3,8-diazabicyclo[3.2.1]octan-3-yl}-7-(8-ethyl-3-hydroxynaphthalen-1-yl)-8-fluoropyrido[4,3-d]pyrimidin-2-yl)oxy]ethyl}piperidin-4-yl)oxy]azetidin-1-yl}-1,2-oxazol-5-yl)-3-methylbutanoyl]-4-hydroxy-N-[(1S)-1-[4-(4-methyl-1,3-thiazol-5-yl)phenyl]ethyl]pyrrolidine-2-carboxamide] returned a maximal degradation (Dmax) of 80 to 100% and a DC50 below 600 nM.
Taken in the same sequence, the figures for `CCc1cccc2cc(O)cc(-c3ncc4c(N5CC6CCC(C5)N6)nc(OCCN5CCC(OC6CN(c7cc([C@@H](C(=O)N8C[C@H](O)C[C@H]8C(=O)N[C@@H](C)c8ccc(-c9scnc9C)cc8)C(C)C)on7)C6)CC5)nc4c3F)c12` [Compound 216, (2S,4R)-1-[(2S)-2-(3-{3-[(1-{2-[(4-{3,8-diazabicyclo[3.2.1]octan-3-yl}-7-(8-ethyl-3-hydroxynaphthalen-1-yl)-8-fluoropyrido[4,3-d]pyrimidin-2-yl)oxy]ethyl}piperidin-4-yl)oxy]azetidin-1-yl}-1,2-oxazol-5-yl)-3-methylbutanoyl]-4-hydroxy-N-[(1S)-1-[4-(4-methyl-1,3-thiazol-5-yl)phenyl]ethyl]pyrrolidine-2-carboxamide] were 20 to 60% and 1000 to 3000 nM.
The compound `C#Cc1c(F)ccc2cc(O)cc(-c3ncc4c(N5CC6CCC(C5)N6)nc(OCCN5CCC(CC6CN(c7cc([C@@H](C(=O)N8C[C@H](O)C[C@H]8C(=O)N[C@@H](C)c8ccc(-c9scnc9C)cc8)C(C)C)on7)C6)CC5)nc4c3F)c12` [Compound 217, (2S,4R)-1-[(2S)-2-(3-{3-[(1-{2-[(4-{3,8-diazabicyclo[3.2.1]octan-3-yl}-7-(8-ethynyl-7-fluoro-3-hydroxynaphthalen-1-yl)-8-fluoropyrido[4,3-d]pyrimidin-2-yl)oxy]ethyl}piperidin-4-yl)methyl]azetidin-1-yl}-1,2-oxazol-5-yl)-3-methylbutanoyl]-4-hydroxy-N-[(1S)-1-[4-(4-methyl-1,3-thiazol-5-yl)phenyl]ethyl]pyrrolidine-2-carboxamide] had a Dmax of 20 to 60% and a DC50 of 1000 to 3000 nM.
Taken in the same sequence, the figures for `CCc1cccc2cc(O)cc(-c3ncc4c(N5CC6CCC(C5)N6)nc(OCCC5CCN(CC6CN(c7cc([C@H](C(=O)N8C[C@H](O)C[C@H]8C(=O)N[C@@H](C)c8ccc(-c9scnc9C)cc8)C(C)C)on7)C6)CC5)nc4c3F)c12` [Compound 218, (2S,4R)-1-[(2R)-2-(3-{3-[(4-{2-[(4-{3,8-diazabicyclo[3.2.1]octan-3-yl}-7-(8-ethyl-3-hydroxynaphthalen-1-yl)-8-fluoropyrido[4,3-d]pyrimidin-2-yl)oxy]ethyl}piperidin-1-yl)methyl]azetidin-1-yl}-1,2-oxazol-5-yl)-3-methylbutanoyl]-4-hydroxy-N-[(1S)-1-[4-(4-methyl-1,3-thiazol-5-yl)phenyl]ethyl]pyrrolidine-2-carboxamide] were 80 to 100% and below 600 nM.
Consider `CCc1cccc2cc(O)cc(-c3ncc4c(N5CC6CCC(C5)N6)nc(OCCC5CCN(CC6CN(c7cc([C@@H](C(=O)N8C[C@H](O)C[C@H]8C(=O)N[C@@H](C)c8ccc(-c9scnc9C)cc8)C(C)C)on7)C6)CC5)nc4c3F)c12` [Compound 219, (2S,4R)-1-[(2S)-2-(3-{3-[(4-{2-[(4-{3,8-diazabicyclo[3.2.1]octan-3-yl}-7-(8-ethyl-3-hydroxynaphthalen-1-yl)-8-fluoropyrido[4,3-d]pyrimidin-2-yl)oxy]ethyl}piperidin-1-yl)methyl]azetidin-1-yl}-1,2-oxazol-5-yl)-3-methylbutanoyl]-4-hydroxy-N-[(1S)-1-[4-(4-methyl-1,3-thiazol-5-yl)phenyl]ethyl]pyrrolidine-2-carboxamide], for which the Dmax lay in the range of 20 to 60% and the DC50 is 1000 to 3000 nM.

The record behind these values is patent US20250206732A1, “COMPOUNDS AND METHODS FOR THE TARGETED DEGRADATION OF KRAS” (Arvinas Operations, Inc., priority 2022, published 2025).
